# Laboratory results published in EP1102770B1, “PARAMAGNETIC 3-,8-SUBSTITUTED DEUTEROPORPHYRIN DERIVATIVES, PHARMACEUTICAL PREPARATIONS CONTAINING SAME, METHOD FOR PRODUCING SAME AND THEIR USE IN MAGNETIC RESONANCE IMAGING OF NECROSIS AND INFARCTION” (SCHERING AKTIENGESELLSCHAFT, priority 1998, dated 2000).
# Where “and” joins values, the source holds several entries; their conditions need not be identical. Equal entries are not always repeated.
# Experiments:
# [1] = tested on: Tieren mit induziertem Myocardinfarkt; assay: MRI experiments in animals with induced myocardial infarction (necrosis-selective enhancement); assay type: in vivo, Ratten (Han.Wistar, Schering SPF); conditions: for Enhancement im nekrotischen Areal des Myocards: single i.v. dose 100 µmol Gd / kg KGW ca. 24 h after infarct induction, middle and late phase, 2.5 to ca. 24 h p. i., MRI 2 Tesla; for Abgrenzung des nekrotischen Areals im MRI-Experiment, Korrelation mit histologischer NBT ("Vital"-) Färbung: single i.v. dose 100 µmol Gd / kg KGW, heart prepared ca. 24 h p. i.
# Procedure: Das nekroseselektive Enhancement wurde nach einmaliger intravenöser Applikation der Substanz aus Beispiel 1d an Tieren mit experimentell erzeugtem Myocardinfarkt im MRI Experiment untersucht. Die Induktion der Herzinfarkte erfolgte an narkotisierten (Domitor®/Dormicum®, i.m.) Ratten (Han.Wistar, Schering SPF, ca.300 g KGW) durch Okklusion der linken Coronararterie. Die Kontrastmittelapplikation (Dosis: 100 µmol Gd / kg KGW) erfolgte ca. 24 h nach der Infarktinduktion. Die Tiere wurden vor und bis 24 h nach KM-Applikation MR-tomographisch (SISCO SIS 85, 2 Tesla; SE-Sequenz, EKG-getriggert, TR: ca. 400 ms, TE: 10 ms, nt=4, ni=256, FOV: 7*7 cm, SD ≈ 3 mm, je 1 Schicht axial) untersucht. Ca. 24 h p. i. wurden die Tiere - im MRT - durch eine Narkotikaüberdosis getötet und zusätzlich ein MRI-Experiment am "frischtoten" Tier (--> keine Bewegungsartefakte) durchgeführt. Zur Verifizierung des Infarktes (Größe und Lage) wurde das Herz präpariert, in Scheiben geschnitten und anschließend eine NBT ("Vital-") Färbung durchgeführt. Vor KM-Applikation ist das infarzierte Areal nicht vom "normalen" Myocard zu unterscheiden, da sich beide Areale isointens darstellen (s. Abb.: 1a). Direkt nach der Substanzapplikation stellt sich der nicht-perfundierte Anteil des Myocards als hypointenses Areal dar (s. Abb.: 1b). Ab ca. 30 min p. i. steigt die Signalintensität im nicht-perfundierten Areal etwas an bzw. die Größe des abgegrenzten (Signalarmen) Areals nimmt ab (--> langsame Diffusion in die Nekrose).
# Das nekroseselektive Enhancement wurde nach einmaliger intravenöser Applikation der Substanz aus Beispiel 2d an Tieren mit experimentell erzeugtem Myocardinfarkt im MRI Experiment untersucht. Die Induktion der Herzinfarkte erfolgte an narkotisierten (Domitor®/Dormicum®, i.m.) Ratten (Han.Wistar, Schering SPF, ca.300 g KGW) durch Okklusion der linken Coronararterie. Die Kontrastmittelapplikation (Dosis: 100 µmol Gd / kg KGW ) erfolgte ca. 24 h nach der Infarktinduktion. Die Tiere wurden vor und bis 3 h (kontinuierlich) sowie 24 h nach KM-Applikation MR-tomographisch (SISCO SIS 85, 2 Tesla; SE-Sequenz, EKG-getriggert, TR: ca. 400 ms, TE: 10 ms, nt=4, ni=256, FOV: 7*7 cm, SD ≈ 3 mm, je 1 Schicht axial) untersucht. Ca. 24 h p. i. wurden die Tiere - im MRT - durch eine Narkotikaüberdosis getötet und ein MRI-Experiment am "frischtoten" Tier (--> keine Bewegungsartefakte) durchgeführt. Zur Verifizierung des Infarktes (Größe und Lage) wurde das Herz präpariert, in Scheiben geschnitten und anschließend eine NBT (nitro blue tetrazolium chlorid) Färbung durchgeführt. Vor KM-Applikation ist das infarzierte Areal nicht vom "normalen" Myocard zu unterscheiden, da sich beide Areale isointens darstellen (s. Abb.: 2a). Direkt nach der Substanzapplikation stellt sich der nicht-perfundierte Anteil des Myocards als hypointenses Areal dar (s. Abb.: 2b). Ab ca. 30 min p. i. steigt die Signalintensität im nicht-perfundierten Areal etwas an bzw. die Größe des abgegrenzten (signalarmen) Areals nimmt ab (--> langsame Diffusion in die Nekrose).
# Das nekroseselektive Enhancement wurde nach einmaliger intravenöser Applikation der Substanz aus Beispiel 4d an Tieren mit experimentell erzeugtem Myocardinfarkt im MRI Experiment untersucht. Die Induktion der Herzinfarkte erfolgte an narkotisierten (Domitor®/Dormicum®, i. m.) Ratten (Han. Wistar, Schering SPF, ca. 300 g KGW) durch Okklusion der linken Coronararterie. Die Kontrastmittelapplikation (Dosis: 100 µmol Gd / kg KGW) erfolgte ca. 24 h nach der Infarktinduktion. Die Tiere wurden vor und bis 3 h (kontinuierlich) sowie 24 h nach KM-Applikation MR-tomographisch (SISCO SIS 85, 2 Tesla; SE-Sequenz, EKG-getriggert, TR: ca. 400 ms, TE: 10 ms, nt=4, ni=256, FOV: 7*7 cm, SD ≈ 3 mm, je 1 Schicht axial) untersucht. Ca. 24 h p. i. wurden die Tiere - im MRT - durch eine Narkotikaüberdosis getötet und ein MRI-Experiment am "frischtoten" Tier (--> keine Bewegungsartefakte) durchgeführt. […]
# [2] = Determination of relaxivity R1; assay type: physicochemical; conditions: Wasser; 40°C; 0,47 Tesla; Minispec PC 20; n=3
# Procedure: • Bestimmung der Relaxivity R1 [L·mmol^-1 ·s^-1] • Gerät: Minispec PC 20 • Messung bei 40°C; 0,47 Tesla • T1-Sequenz: 180°-TI-90°, Inversion Recovery
# [3] = tested on: humanem Coloncarcinom (HT-29 P9); assay: Effect of light (ED50) on a tumour cell culture in the presence of porphyrins (phototoxicity); assay type: cell-based, human; conditions: concentration at which about half of the cells are no longer vital, 3 days xenon lamp (8,5 k Lux, UV filter), 2 x 30 min daily, count on day 4
# Procedure: In Kulturflaschen von 25 ml Inhalt wird eine Zellkultur von humanem Coloncarcinom (HT-29 P9) 3 Tage bei 37°C vermehrt. Die Kulturen werden in zwei Grupen aufgeteilt und mit Lösungen der Prüfsubstanzen (50 mmol Porphyrineinheit (PE) /l, verdünnt mit fötalem Kälberserum) in zunehmender Menge (0; 1,5; 5; 8,5; 12; 15,5; 19 µmol PE/l) versetzt. Die Proben werden drei Tage lang mit einer Xenon-Lampe (8,5 k Lux, UV-Filter) bestrahlt. Die erste Gruppe erhält täglich 2 Bestrahlungen von je 30 Minuten Dauer im Abstand von 4 Stunden. Die restliche Zeit bleibt sie im Dunkeln im Brutschrank. Die zweite Gruppe wird nicht belichtet und bleibt die gesamte Zeit im Dunkeln im Brutschrank. Am vierten Tag wird das Zellwachstum durch Lebend-Tot-Färbung und Zählung mit der Zählkammer bestimmt.
# In der Tabelle ist die Konzentration angegeben, bei der etwa die Hälfte der Zellen nicht mehr vital ist.
# [4] = In vivo comparison of blood kinetics with Dy-DTPA; conditions: for Blutkonzentrationen: rats, i.v. 82 µmol Gd/kg
# [5] = Acute tolerance after single intravenous administration; assay type: in vivo, SPF-Mäuse (NMRI, Schering); conditions: mouse, single i.v., observation 7 days
# Procedure: Es soll die Akute Verträglichkeit der Titelverbindung aus Beispiel 2d nach einmaliger intravenöser Gabe an der Maus untersucht werden.
# Testmethode: Methode KM D1, 5. Auflage Tiermaterial: SPF-Mäuse (NMRI, Schering), 18-22 g, f:m = 50:50 Injektionsgeschwindigkeit: 2 ml/min. Kriterium der Wirksamkeit: exitus letalis Beobachtungszeitraum: 7 Tage
# [6] = plasma, rats n=3, i.v., 82 µmol Gd/kg (Verbindung 1), 103 µmol Dy/kg (Verbindung 2)
Substance,Enhancement im nekrotischen Areal des Myocards [1],"Abgrenzung des nekrotischen Areals im MRI-Experiment, Korrelation mit histologischer NBT (""Vital""-) Färbung [1]",Relaxivity R1 [2],ED50 [3],"Vd ss [4, 6]","α-t½ [4, 6]","β-t½ [4, 6]",Blutkonzentrationen ([4]; after 120 min),Blutkonzentrationen ([4]; after three minutes),"LD50 ([5]; 2 ml/min, value stated as to be expected)",Lebern und Nieren aller überlebenden Tiere [5]
"{mu-[{16,16'-[Chloroeisen(III)-7, 12-diethyl-3, 8, 13, 17-tetramethylporphyrin-2, 18-diyl]-bis[3, 6, 9-tris(carboxymethyl)-11,14-dioxo-3, 6, 9, 12, 13-pentaazahexadecanoato]}(8-)]}-digadolinato(2-) [Beispiel 1d]",deutliches Enhancement,korreliert sehr gut,11.9 ± 1.0 L/mmol/s,"> 1,25 mmol PE/l",0.08 ± 0.00 L/kg,3.56 ± 1.01 min,2.88 h and 2.8817 ± 0.646 h,22-25 % der Dosis,56-63 % der Dosis,,
"{mu-[{16,16'-[Kupfer(II)-7, 12-diethyl-3, 8, 13, 17-tetramethylporphyrin-2,18-diyl]-bis[3, 6, 9-tris(carboxymethyl)-11, 14-dioxo-3, 6, 9, 12, 13-pentaazahexadecanoato]}(8-)]}-digadolinato(2-), Dinatrium [Beispiel 4d]",deutliches Enhancement,korreliert sehr gut,11.0 ± 0.1 L/mmol/s,"> 1,25 mmol PE/l",,,,,,,
"{mu-[{16, 16'-(7, 12-Diethyl-3, 8, 13, 17-tetramethylporphyrin-2, 18-diyl]-bis[3,6,9-tris(carboxymethyl)-11, 14-dioxo-3, 6, 9,12, 13-pentaazahexadecanoato]}(8-)]}-digadolinato(2-),-Dinatrium [IV, reference compound]",,,9.2 ± 0.1 L/mmol/s,"6,4·10^-3 mmol PE/l",,,,,,,
"{mu-[{16, 16'-[Chloromangan(III)-7, 12-diethyl-3, 8, 13, 17-tetramethylporphyrin-2, 18-diyl]-bis[3, 6, 9-tris(carboxymethyl)-11, 14-dioxo-3, 6, 9, 12, 13-pentaazahexadecanoato]}(8-)]}-digadolinato(2-),-Dinatrium [Beispiel 2d]",deutliches Enhancement,korreliert sehr gut,9.3 ± 0.1 L/mmol/s,"> 1,25 mmol PE/l",,,,,,≥ 5 mmol Gd/kg,unauffällig
